Measured values taken from ChEMBL document CHEMBL4251741, “Amidate Prodrugs of Cyclic 9-(S)-[3-Hydroxy-2-(phosphonomethoxy)propyl]adenine with Potent Anti-Herpesvirus Activity” (ACS Med Chem Lett, 2018).

Tests used:
[1] = Half life in human plasma at 1 uM by HPLC-MS/MS analysis; type: ADME, cell-free
Human alphaherpesvirus 2 = assay: Antiviral activity against Herpes simplex virus 2 G infected in HEL cells assessed as inhibition of virus-induced cytopathic effect measured after 2 to 3 days post-infection; type: functional, organism-based; settings: Human alphaherpesvirus 2, strain G
Human alphaherpesvirus 3 [2] = assay: Antiviral activity against thymidine kinase deficient Varicella-Zoster virus 07-1 assessed as inhibition of plaque formation measured after 5 days post-infection; type: functional, organism-based; settings: Human alphaherpesvirus 3, 07-1, 120 h
[3] = Cytotoxicity against HEL cells assessed as morphological changes after 3 days by microscopic analysis; type: cell-based; settings: human
Human alphaherpesvirus 1 [4] = assay: Antiviral activity against ACV-resistant thymidine kinase deficient Herpes simplex virus 1 KOS infected in HEL cells assessed as inhibition of virus-induced cytopathic effect measured after 2 to 3 days post-infection; type: functional, organism-based; settings: Human alphaherpesvirus 1, KOS
[5] = Cytotoxicity against HEL cells assessed as reduction in cell viability after 3 days by coulter counting method; type: cell-based; settings: human
Human betaherpesvirus 5 [6] = assay: Antiviral activity against Human cytomegalovirus AD169 infected in HEL cells assessed as inhibition of virus-induced cytopathic effect measured after 6 to 7 days post-infection; type: functional, organism-based; settings: Human betaherpesvirus 5, AD169, HEL
Human alphaherpesvirus 1 [7] = assay: Antiviral activity against Herpes simplex virus 1 KOS infected in HEL cells assessed as inhibition of virus-induced cytopathic effect measured after 2 to 3 days post-infection; type: functional, organism-based; settings: Human alphaherpesvirus 1, KOS
Human betaherpesvirus 5 [8] = assay: Antiviral activity against Human cytomegalovirus Davis infected in HEL cells assessed as inhibition of virus-induced cytopathic effect measured after 6 to 7 days post-infection; type: functional, organism-based; settings: Human betaherpesvirus 5, Davis
[9] = Half life in human liver microsomes at 0.1 uM in presence of NADPH-generating system by HPLC-MS/MS analysis; type: ADME, microsome
Human alphaherpesvirus 3 [10] = assay: Antiviral activity against thymidine kinase expressing Varicella-Zoster virus Oka assessed as inhibition of plaque formation measured after 5 days post-infection; type: functional, organism-based; settings: Human alphaherpesvirus 3, strain Oka vaccine, 120 h
[11] = Selectivity index, ratio of CC50 for HEL cells to EC50 for Herpes simplex virus 2 G infected in HEL cells; type: toxicity, cell-based; settings: human, read-out: Ratio CC50/EC50
[12] = Selectivity index, ratio of CC50 for HEL cells to EC50 for thymidine kinase deficient Varicella-Zoster virus 07-1 infected in HEL cells; type: toxicity, cell-based; settings: human, read-out: Ratio CC50/EC50
[13] = Selectivity index, ratio of CC50 for HEL cells to EC50 for Human cytomegalovirus AD169 infected in HEL cells; type: toxicity, cell-based; settings: read-out: Ratio CC50/EC50
[14] = Selectivity index, ratio of CC50 for HEL cells to EC50 for Human cytomegalovirus Davis infected in HEL cells; type: toxicity, cell-based; settings: read-out: Ratio CC50/EC50
[15] = Selectivity index, ratio of CC50 for HEL cells to EC50 for Herpes simplex virus 1 KOS infected in HEL cells; type: toxicity, cell-based; settings: human, read-out: Ratio CC50/EC50
[16] = Selectivity index, ratio of CC50 for HEL cells to EC50 for thymidine kinase expressing Varicella-Zoster virus Oka infected in HEL cells; type: toxicity, cell-based; settings: human, read-out: Ratio CC50/EC50
[17] = Selectivity index, ratio of CC50 for HEL cells to EC50 for ACV-resistant thymidine kinase deficient Herpes simplex virus 1 KOS infected in HEL cells; type: toxicity, cell-based; settings: human, read-out: Ratio CC50/EC50

| SMILES | half-life at 1 µM [1] | EC50 (Human alphaherpesvirus 2) | EC50 (Human alphaherpesvirus 3 [2]) | MCC at 72 h [3] | EC50 (Human alphaherpesvirus 1 [4]) | CC50 at 72 h [5] | EC50 (Human betaherpesvirus 5 [6]) | EC50 (Human alphaherpesvirus 1 [7]) | EC50 (Human betaherpesvirus 5 [8]) | half-life at 0.1 µM [9] | EC50 (Human alphaherpesvirus 3 [10]) | selectivity ratio [11] | selectivity ratio [12] | selectivity ratio [13] | selectivity ratio [14] | selectivity ratio [15] | selectivity ratio [16] | selectivity ratio [17] |
| --- | --- | --- | --- | --- | --- | --- | --- | --- | --- | --- | --- | --- | --- | --- | --- | --- | --- | --- |
| CCCCCOC(=O)C[C@H](NP1(=O)CO[C@@H](Cn2cnc3c(N)ncnc32)CO1)C(=O)OCCCCC (stereo partly drawn) | 22 min | 2 nM | 1.5 nM | 13.6 µM | 7.3 nM | 2730 nM | 27 nM | 3.2 nM | 9 nM | 4 min | 1.4 nM |  |  |  |  |  |  |  |
| CCCCCOC(=O)[C@@H](NP1(=O)CO[C@@H](Cn2cnc3c(N)ncnc32)CO1)[C@@H](C)CC (stereo partly drawn) |  | 2.7 nM | 0.54 nM | 9.96 µM | 1.9 nM | 12000 nM | 7 nM | 2 nM | 6.5 nM |  | 0.45 nM | > 4400 | 20000 | 1800 | 1800 | > 4400 | 20000 | > 4400 |
| O=c1[nH]c(=O)n([C@H]2C[C@H](O)[C@@H](CO)O2)cc1/C=C/Br [BRIVUDINE] |  | > 30000 nM | 22100 nM | > 30 µM | > 30000 nM | > 300000 nM |  |  |  |  | 53 nM |  |  |  |  |  |  |  |
| Nc1nc2c(ncn2COCCO)c(=O)[nH]1 [ACYCLOVIR] |  |  |  | > 88.8 µM |  |  |  |  |  |  |  |  |  |  |  |  |  |  |
| CCCCCOC(=O)[C@H](C)NP1(=O)CO[C@@H](Cn2cnc3c(N)ncnc32)CO1 (stereo partly drawn) |  | 17 nM | 4.3 nM | 23.5 µM | 10 nM | 3400 nM | 64 nM | 20 nM | 65 nM |  | 2 nM |  |  |  |  |  |  |  |
| CCCCCOC(=O)CC(NP1(=O)COC(Cn2cnc3c(N)ncnc32)CO1)C(=O)OCCCCC (single isomer, unassigned) |  | 110 nM | 62 nM | > 18.5 µM | 76 nM | 11600 nM | 4390 nM | 210 nM | 1620 nM |  | 33 nM |  |  |  |  |  |  |  |
| Nc1ccn(C[C@@H](CO)OCP(=O)(O)O)c(=O)n1 [CIDOFOVIR] |  | 2730 nM |  | > 71.6 µM | 1950 nM | > 358000 nM |  | 4180 nM |  |  |  |  |  |  |  |  |  |  |
| CCCCCOC(=O)[C@@H](NP(=O)(CO[C@H](CO)Cn1cnc2c(N)ncnc21)N[C@H](C(=O)OCCCCC)C(C)C)C(C)C | > 120 min | 2.8 nM | 0.95 nM | 8.57 µM | 0.9 nM | 600 nM | 100 nM | 2.3 nM | 72 nM | 4 min | 1.5 nM |  |  |  |  |  |  |  |
| Nc1nc2c(ncn2CCC(CO)CO)c(=O)[nH]1 [PENCICLOVIR] |  | 840 nM |  | > 79 µM | > 79000 nM | > 395000 nM |  | 480 nM |  |  |  |  |  |  |  |  |  |  |
| CCCCCOC(=O)[C@H](CC(C)C)NP1(=O)CO[C@@H](Cn2cnc3c(N)ncnc32)CO1 (stereo partly drawn) | 84 min | 1.9 nM | 0.59 nM | 4.27 µM | 1.3 nM | 1620 nM | 5.7 nM | 1.3 nM | 3.8 nM | 16 min | 0.47 nM |  |  |  |  |  |  |  |
| CCCCCOC(=O)[C@H](CCSC)NP1(=O)CO[C@@H](Cn2cnc3c(N)ncnc32)CO1 (stereo partly drawn) |  | 11 nM | 4 nM | 4.11 µM | 5.7 nM | 39600 nM | 32 nM | 8.9 nM | 29 nM |  | 2.6 nM |  |  |  |  |  |  |  |
| CCCCCOC(=O)[C@@H](NP1(=O)CO[C@@H](Cn2cnc3c(N)ncnc32)CO1)C(C)C (stereo partly drawn) |  | 4.2 nM | 1.5 nM | 4.4 µM | 1.8 nM | 7760 nM | 5.9 nM | 3 nM | 4.8 nM |  | 0.57 nM |  |  |  |  |  |  |  |
| CCCCCOC(=O)CC[C@H](NP1(=O)CO[C@@H](Cn2cnc3c(N)ncnc32)CO1)C(=O)OCCCCC (stereo partly drawn) |  | 2.5 nM | 0.95 nM | 13.2 µM | 1.2 nM | 520 nM | 14 nM | 1.2 nM | 7.6 nM |  | 0.58 nM |  |  |  |  |  |  |  |
| Nc1nc2c(ncn2COC(CO)CO)c(=O)[nH]1 [GANCICLOVIR] |  | 51 nM |  | > 39.2 µM | > 29500 nM | > 319000 nM | 7410 nM |  |  |  |  |  |  |  |  |  |  |  |
| CCCCCOC(=O)[C@H](Cc1ccccc1)NP1(=O)CO[C@@H](Cn2cnc3c(N)ncnc32)CO1 (stereo partly drawn) |  | 2.3 nM | 3.2 nM | 9.29 µM | 1.5 nM | 30600 nM | 31 nM | 3.5 nM | 17 nM |  | 0.52 nM | > 4400 |  |  |  | > 4400 |  | > 4400 |
